Data on eleven compounds can be found in article PMC10945501, “Development and In Vivo Evaluation of Small-Molecule Ligands for Positron Emission Tomography of Immune Checkpoint Modulation Targeting Programmed Cell Death 1 Ligand 1” (Journal of Medicinal Chemistry, 2024).

Like-named read-outs stand apart in the source and are kept apart here.

For one series, the target named is T1, human PD-L1 (Homo sapiens, UniProt Q9NZQ7).
T1 construct: purchased Cisbio Bioassays SAS, Codolet, France 64PD1PEG
In words: HTRF PD-1/PD-L1 binding assay (cell-free).

Series [1] can be described thus: Lipophilicity by HPLC method (μHPLC logD). As to conditions: for μHPLC logD: pH 7.4; for chromatographic logD: pH 7.4, μHPLC logD.
[2] abbreviates: cell-free competitive PD-1/PD-L1 HTRF, mean ± SD, read-out: IC50 (hPD-L1 binding affinity, HTRF).
The mark [3] stands for this setting: no full dose–response curves observed, values are relative IC50, read-out: relative IC50 (hPD-L1 binding affinity, HTRF).

T1 sequence (Q9NZQ7 19-238 limits assumed): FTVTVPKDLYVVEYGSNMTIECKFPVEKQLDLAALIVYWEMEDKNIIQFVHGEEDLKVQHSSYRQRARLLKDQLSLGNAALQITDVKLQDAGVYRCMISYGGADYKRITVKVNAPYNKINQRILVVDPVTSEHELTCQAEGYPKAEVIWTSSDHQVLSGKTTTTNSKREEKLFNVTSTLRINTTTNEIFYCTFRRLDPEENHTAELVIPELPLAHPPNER

On to `Cc1c(COc2cc(O)c(C=O)cc2Cl)cccc1-c1ccc2c(c1)OCCO2` [Compound 2c, 5-Chloro-4-((3-(2,3-dihydrobenzo[b][1,4]dioxin-6-yl)-2-methylbenzyl)oxy)-2-hydroxybenzaldehyde], for which the IC50 at human PD-L1 (setting [2]) is over 100000 nM.
On to `CC(=O)NCCNCc1cc(Cl)c(OCc2cccc(-c3ccc4c(c3)OCCO4)c2C)cc1OCc1cocn1` [Compound 4k, N-(2-((5-Chloro-4-((3-(2,3-dihydrobenzo[b][1,4]dioxin-6-yl)-2-methylbenzyl)oxy)-2-(oxazol-4-ylmethoxy)benzyl)amino)ethyl)acetamide], for which the 50% inhibitory concentration (IC50) on human PD-L1 (setting [2]) stood at 50 ± 7 nM. Moreover, in series [1], the “μHPLC logD” value is 4.2 ± 0.2 and the chromatographic logD amounted to 4.21 ± 0.16.
Taken in the same sequence, the figures for `CC(=O)NCCNCc1cnc(OCc2cccc(-c3ccccc3)c2C)c(Cl)c1` [Compound 4a, N-(2-(((5-Chloro-6-((2-methyl-[1,1′-biphenyl]-3-yl)methoxy)pyridin-3-yl)methyl)amino)ethyl)acetamide] were over 50000 nM, 2.3 ± 0.1 and 2.33 ± 0.14.
`Cc1c(COc2cc(OCc3cocn3)c(C=O)cc2Cl)cccc1-c1ccc2c(c1)OCCO2` [Compound 3d, 5-Chloro-4-((3-(2,3-dihydrobenzo[b][1,4]dioxin-6-yl)-2-methylbenzyl)oxy)-2-(oxazol-4-ylmethoxy)benzaldehyde]: the IC50 on human PD-L1 (setting [2]) is over 5000 nM.
Turning to `COC(=O)[C@@H](CO)NCc1cc(Cl)c(OCc2cccc(-c3ccc4c(c3)OCCO4)c2C)cc1OCc1ccnc(C#N)c1` [Compound 5b, Methyl (5-Chloro-2-((2-cyanopyridin-4-yl)methoxy)-4-((3-(2,3-dihydrobenzo[b][1,4]dioxin-6-yl)-2-methylbenzyl)oxy)benzyl)-D-serinate], the “fold decrease in affinity by methylation at R3*” value on human PD-L1 (IC50 ratio, pairs 4c vs 5a, 4c vs 5b, 4e vs 5c, 4e vs 5d) was found to be 4.98 fold. The IC50 on human PD-L1 (setting [2]) turned out to be 30 ± 8 nM. Further, in series [1], the “μHPLC logD” value was determined as 4.9 ± 0.3 and the chromatographic logD was 4.88 ± 0.26.
Consider `Cc1c(COc2cc(OCc3cccc(C#N)c3)c(C=O)cc2Cl)cccc1-c1ccc2c(c1)OCCO2` [Compound 3c, 3-((4-Chloro-5-((3-(2,3-dihydrobenzo[b][1,4]dioxin-6-yl)-2-methylbenzyl)oxy)-2-formylphenoxy)methyl)benzonitrile], for which the IC50 on human PD-L1 (setting [2]) is over 5000 nM.
Consider `Cc1c(COc2cc(OCc3cccc(C#N)c3)c(CN[C@H](CO)C(=O)O)cc2Cl)cccc1-c1ccccc1` [Compound 4b, (5-Chloro-2-((3-cyanobenzyl)oxy)-4-((2-methyl-[1,1′-biphenyl]-3-yl)methoxy)benzyl)-D-serine], for which the half-maximal inhibitory concentration (IC50) at human PD-L1 (setting [2]) was determined as 6.7 ± 0.4 nM. Also, in series [1], the chromatographic logD worked out at 3.46 ± 0.05.
For the compound `Cc1c(COc2cc(O)c(C=O)cc2Cl)cccc1-c1ccccc1` [Compound 2b, 5-Chloro-2-hydroxy-4-((2-methyl-[1,1′-biphenyl]-3-yl)methoxy)benzaldehyde], the IC50 at human PD-L1 (setting [2]) is over 100000 nM.
In the case of `Cc1c(COc2cc(OCc3cccc(C#N)c3)c(C=O)cc2Cl)cccc1-c1ccccc1` [Compound 3a, 3-((4-Chloro-2-formyl-5-((2-methyl-[1,1′-biphenyl]-3-yl)methoxy)phenoxy)methyl)benzonitrile], the IC50 on human PD-L1 (setting [3]) was found to be 1300 nM.
Consider `Cc1c(COc2cc(OCc3ccnc(C#N)c3)c(C=O)cc2Cl)cccc1-n1cccc1` [Compound 3e, 4-((4-Chloro-2-formyl-5-((2-methyl-3-(1H-pyrrol-1-yl)benzyl)oxy)phenoxy)methyl)picolinonitrile], for which, on human PD-L1 (setting [2]), the half-maximal inhibitory concentration (IC50) is over 5000 nM.
Take `Cc1c(COc2cc(OCc3ccnc(C#N)c3)c(C=O)cc2Cl)cccc1-c1ccc2c(c1)OCCO2` [Compound 3b, 4-((4-Chloro-5-((3-(2,3-dihydrobenzo[b][1,4]dioxin-6-yl)-2-methylbenzyl)oxy)-2-formylphenoxy)methyl)picolinonitrile]: the 50% inhibitory concentration (IC50) on human PD-L1 (setting [3]) amounted to 207 ± 340 nM.
